This note sets out measurements from patent US10660789B2, “1,4-dihydropyridine derivatives with HSP modulating activity” (Richter Gedeon NYRT., priority 2011, dated 2020).

Counter-ions that a name gives are not always drawn. Like-named read-outs stand apart in the source and are kept apart here. Marks after values point to notes of the source that are not given here.

One data set relates to other Hsps. Nature of the data set: Other in vitro HSP modulating effects (Table 3). The format is cell-based, mouse and human. More on the design: key: +: co-inducing activity; −: silencing activity; 0: with the experimental methods applied no other HSP modulating effects could be identified.
The next data set deals with Zucker obese rat. The data set can be described thus: Insulin resistance, Zucker obese rat. The data set is classed as in vivo. On the procedure:
Insulin sensitizing activity of the compounds was tested in Zucker obese rat at three doses (10, 30 and 100 mg/kg), 6 weeks old Zucker obese (ZO) rats were adapted for a week before the administration of the compound. The animals were treated once a day for 5 days with compound Ex. 1 with 10, 30 and 100 mg/kg dose by stomach probe. The control group was treated with Klucel solution. The animals were kept in metabolic cage during the experiment, their food and drink consumption, the amount of urine and faeces was determined daily.
At the end of the treatment period the animals were fasted for 16 hours, the fasting plasma glucose level was determined. At the end the animals were sacrificed and different organs were taken for Hsp measurement.

Data set [1] relates to Hsp70 promoter. The data set can be described thus: Hsp promoter probing, Hsp70 promoter-YFP reporter, flow cytometry (Table 3). The data set is classed as cell-based, mouse and human. More on the design: key: +: co-inducing activity; −: silencing activity; 0: with the experimental methods applied no other HSP modulating effects could be identified. Particulars: heat shock 42° C. 1 h, 16 h recovery; B16 or SHSY5Y reporter cells, cell line per value not stated. On the procedure: (§1) The Hsp co-inducing effect of the compounds on stress response was tested on B16 mouse melanoma and SHSY5Y human neuroblastoma cell lines stably transfected with Hsp promoter probing plasmids. This kind of promoter probing, using the promoter region of a given gene conjugated with fluorescent protein is used as a best and fastest test system for finding drugs which modulate the activity of the gene followed by the given promoter (Wyshocka et al., Mol. Cel. Biochem. 215:153-156, 2000).
The Hsp encoding genes are transactivated through the binding of HSF to the heat shock element found on the DNA upstream of the Hsp genes, in the so called promoter region. In the absence of heat stress, the heat shock factors are present as monomers. Upon heat stress, however, the heat shock factors form trimers, which are the active components, able to bind to heat shock elements. Once HSF is bound to the heat shock element in the promoter of Hsp genes, the gene following the promoter region is transcriptionally active.
(§2) Reporter plasmids, containing the Hsp70 and/or Hsp25 promoter conjugated to either YFP or GFP (yellow or green fluorescent protein), were stably transfected into the cells and the expression of YFP or GFP was followed by flow cytometry. Cells were either kept at 37° C. or exposed to heat shock at 42° C. for 1 hour followed by a 16 hour recovery period at 37° C. in the presence or absence of different concentrations of the test compound. After recovery the expression of YFP or GFP which is in straight correlation with the promoter activity of Hsp70 or Hsp27 genes was followed by measuring the fluorescence intensity of the cells by flow cytometry. Fluorescence intensity is in straight correlation with the amount of fluorescent protein (GFP or YFP) produced under the control of hsp promoter. The mean fluorescence intensity of YFP or GFP produced is shown as “Hsp promoter activity”.
Cells were homogenously distributed on 6-well plates in 1×10^5 cells/well density. B16-pHsp25-GFP and B16-pHsp70-YFP melanoma cells were grown in RPMI-1640 medium supplemented with 10% Fetal bovine serum (FBS), penicillin (200 units/ml), streptomycin (200 μg/ml) and 2 mM L-Glutamine. For maintaining the SH-SY5Y-pHsp25-GFP and SH-SY5YpHsp70-YFP neuroblastoma cell lines Dulbecco's modified Eagle's medium (DMEM-F-12) containing 10% FBS, 2 mM L-Glutamine, penicillin (200 units/ml), streptomycin (200 μg/ml) and MEM non-essential amino acids were used. Before the treatments both cell lines were incubated at 37° C. in a saturated humidity atmosphere containing 95% air and 5% CO2. After 24 h incubation cells were pretreated with compounds of the invention in four different concentrations (usually in 3; 10; 20 and 50 μM) 30 min before the heat shock at 42° C. for 1 h and then incubated further at 37° C. for 16 h (recovery period). After this procedure cells were trypsinized and suspensed in 500 μl serum-free DMEM-F12 medium. The changes in cells' fluorescence were detected using BD FACSCalibur flow cytometer.

The next data set deals with Hsp25 promoter. The data set can be described thus: Hsp25 promoter-GFP reporter in SHSY5Y cells, flow cytometry. The data set is classed as cell-based, human. Here is the method: as §1, §2
The fluorescence intensity of GFP and YFP […].
Selectivity of the Hsp25 co-inducing activity of compound of Ex. 11 is shown on FIG. 3. […] The fluorescence intensity of GFP produced as a result of Hsp25 promoter activity was measured by flow cytometry.
(§3) Cells were homogenously distributed on 6-well plates in 1×10^5 cells/well density. B16-pHsp25-GFP and B16-pHsp70-YFP melanoma cells were grown in RPMI-1640 medium supplemented with 10% Fetal bovine serum (FBS), penicillin (200 units/ml), streptomycin (200 μg/ml) and 2 mM L-Glutamine. […] The changes in cells' fluorescence were detected using BD FACSCalibur flow cytometer.
For orientation: A flow cytometer gives signals particle by particle.

A further data set concerns Hsp25. The data set can be described thus: Other in vitro effects, Hsp25 (Table 3). The format is cell-based, mouse and human. Also noted: key: +: co-inducing activity; −: silencing activity; 0: with the experimental methods applied no other HSP modulating effects could be identified. On the procedure: as §1, §2, §3
SY-SY5Y and B16 cells were extracted in NP-40 lysis buffer (PBS pH 7.4, 1% protease inhibitor coctail and 1% Triton X-100). […] The immune complexes were detected with chemo-luminescent substrate of peroxidase according to the supplier's instructions. Images taken from the membranes were analyzed using AlphaEase FC software.

Another data set relates to B16 melanoma cells. Nature of the data set: Experimental metastatic melanoma, B16 cells i.v. in C57Bl/6 mice. The data set is classed as in vivo, mouse. On the procedure:
The anticancer activity was tested in C57Bl/6 mouse (B6), the best known syngeneic mouse model of experimental metastatic melanoma. C57Bl/6 mice injected with B16 melanoma cells subcutaneously or intramuscularly develop primary tumors that, in a part of the recipients, give rise to lung metastases. When the B16 cells are injected intravenously via the tail vein, a fraction of the tumor cells homes directly in the lung, where they develop into multiple independent tumor nodules termed “experimental metastases”. Although lung tumors are the most prominent, brain, liver and kidney tumors are also detectable in intravenously injected mice. Since the behavior of the tumor-bearing mice is quite uniform, the model is suitable for simultaneous testing of high numbers of drug candidates in a limited number of experimental animals.
The in vivo tumor experiments were performed with cultured B16 cells that were previously re-isolated from lung metastatic nodules, therefore their metastatic potential was kept optimal. The tumor cells liberated from the tumor mass by trypsin digestion were expanded in cell culture and stored in aliquots in liquid nitrogen, while the number of in vitro passages was kept to a minimum. In the experiments, B6 mice were injected with 100 000 B16 melanoma cells i.v. via the tail vein. The drug candidates were dissolved in physiological saline then they were administered i.p. in a volume of 100 ul. Daily treatment of tumor bearing mice started at day 7 after the tumor injection. The body weight of the mice was measured at day 1, 7, 14 and 21. The survival of the tumor bearing mice was recorded daily. All experiments were performed in accordance with national and European animal welfare guidelines. To prevent unnecessary suffering, moribund mice were euthanized.

Another data set can be described thus: Acute toxicity (LD50). Particulars: in vivo.
Another data set concerns B16F10 melanoma cells. Nature of the data set: Vincristine cytotoxicity in combination, B16F10 melanoma cells. The format is cell-based. Conditions: Mus musculus, read-out: IC50 of VR (50% inhibition of cell growth). Here is the method: Cells were homogenously distributed on 96-well plates in 5×10^3 cells/well density then incubated for 24 h at 37° C. On the next day cells were treated with compounds of the invention in 100 nM-200 μM concentration range for 24 h. The viability of the cells were measured using alamarBlue® assay kit according to the supplier's instructions.
The rationale for combination chemotherapy is to use drugs that work by different mechanisms of action, thereby decreasing the likelihood that resistant cancer cells will develop.

The next data set deals with Ca^2+ channel. Nature of the data set: Hsp modulating versus Ca2+ antagonist effect.
Data set [2] concerns Hsp70 promoter. The data set can be described thus: Hsp70 promoter-YFP reporter in B16 F-10 melanoma cells, flow cytometry. The data set is classed as cell-based, mouse. Particulars: stress induced, FIG. 4. On the procedure: as §1
Reporter plasmids, containing the Hsp70 and/or Hsp25 promoter conjugated to either YFP or GFP (yellow or green fluorescent protein), were stably transfected into the cells and the expression of YFP or GFP was followed by flow cytometry. […] After recovery the expression of YFP or GFP which is in straight correlation with the promoter activity of Hsp70 or Hsp27 genes was followed by measuring the fluorescence intensity of the cells by flow cytometry. Fluorescence intensity is in straight correlation with the amount of fluorescent protein (GFP or YFP) produced under the control of hsp promoter. The mean fluorescence intensity of YFP or GFP produced is shown as “Hsp promoter activity”.
Some of the compounds are Hsp70 selective stress protein response silencers as shown on FIG. 4. […] The fluorescence intensity of YFP produced as a result of Hsp70 promoter activity was measured by flow cytometry. […]

Setting [3] is: model in which efficacy was shown.

As for `COC(=O)C1=C(C)N(C)C(C)=C(C(=O)OC)C1c1ccc(C(F)(F)F)cc1` [Example 1, Dimethyl 1,2,6-trimethyl-4-(4-trifluoromethylphenyl)-1,4-dihydropyridine-3,5-dicarboxylate], the melting point (commonly the temperature of the solid-liquid transition) lay within 159 to 160 °C. The “Other in vitro effects” value in the data set on other Hsps is reported as 0****. Besides, the “fasting plasma glucose level” value with Zucker obese rat (10, 30 and 100 mg/kg once a day for 5 days by stomach probe, 16 h fasted, FIG. 5A) is recorded as “improved fasting plasma glucose level”. In the data set on Zucker obese rat (10, 30 and 100 mg/kg once a day for 5 days, Western blot, FIG. 5B), the “Hsp70 amount in brown adipose tissue” value is “elevated Hsp70 amount in brown adipose tissue”. In the data set with Zucker obese rat (setting [3]), the In vivo efficacy entry was “Insulin resistance”. Besides, the Hsp70 modulation result with Hsp70 promoter [1] is recorded as “+*”.
`CCN1C(C)=C(C(=O)OC)C(c2ccc(C(F)(F)F)cc2)C(C(=O)OC)=C1C` [Example 11, Dimethyl 1-ethyl-2,6-dimethyl-4-(4-trifluoromethylphenyl)-1,4-dihydropyridine-3,5-dicarboxylate]: the melting point lay in the range of 135 to 137 °C. For the same molecule, the “activity of the promoter of the Hsp25 gene at 37° C.” value with Hsp25 promoter (37° C.) is “does not affect the activity of the promoter of the Hsp25 gene at 37 °C”. Moreover, the Hsp25 co-inducing activity result in the data set on Hsp25 promoter (heat stress, FIG. 3) is reported as “strong, concentration dependent co-inducer for Hsp25 stress protein”. In addition, the “Other in vitro effects: Hsp25” value with Hsp25 was “Hsp25+”.
For `COC(=O)C1=C(CCN2CCCCC2)N(C)C(CCN2CCCCC2)=C(C(=O)OC)C1c1ccc(C(F)(F)F)cc1` [Example 17, Dimethyl 1-methyl-2,6-bis-(2-piperidin-1-yl-ethyl)-4-(4-trifluoromethylphenyl)-1,4-dihydropyridine-3,5-dicarboxylate dihydrochloride], the figures for the “Increase in life span” value in the data set on B16 melanoma cells (1 mg/kg i.p. daily from day 7 to day 18), in the data set on B16 melanoma cells (3 mg/kg i.p. daily from day 7 to day 18) and in the data set with B16 melanoma cells (10 mg/kg i.p. daily from day 7 to day 18) were 23.1%, 40.8% and 53.7%, respectively. The Mean survival time with B16 melanoma cells (1 mg/kg i.p. daily from day 7 to day 18, FIG. 8) amounted to 31.0 ± 3.7 days; in the data set with B16 melanoma cells (3 mg/kg i.p. daily from day 7 to day 18, FIG. 8), 35.55 ± 3.80 days; in the data set with B16 melanoma cells (10 mg/kg i.p. daily from day 7 to day 18, FIG. 8) it was 38.10 ± 10.45 days. Besides, the “drug-related mortality and weight loss” value in the data set with B16 melanoma cells (10 mg/kg i.p. daily, tumor bearing mice) is “did not produce drug-related mortality and statistically significant drug related weight loss”. Also, in the data set with B16 melanoma cells (setting [3]), the In vivo efficacy result was “Cancer mono-”. In addition, the LD50 – broadly, the dose expected to kill half of the subjects tested – in the data set “Acute toxicity (LD50)” is 150 mg/kg. Moreover, the “Other in vitro effects: Hsp25” value with Hsp25 is recorded as “Hsp25 0”.
`CCC1=C(C(=O)OC)C(c2ccc(C(F)(F)F)cc2)C(C(=O)OC)=C(CC)N1C` [Example 27, Dimethyl 2,6-diethyl-1-methyl-4-(triflouromethyl-phenyl)-1,4-dihydropyridine-3,5-dicarboxylate] displayed a melting point of 136 to 138 °C. For the same molecule, the IC50 (commonly the concentration needed to halve the response being measured) with B16F10 melanoma cells (B16-F10, VR with Ex 27 at 10 μM) was found to be 0.4 nM. Also, the Ca antagonist effect entry with Ca^2+ channel is “no Ca antagonist effect”. Besides, the Hsp70 silencer activity result in the data set on Hsp70 promoter [2] is reported as “strong concentration dependent silencer for stress induced Hsp70 gene activity”.
On to `COC(=O)C1=C(C#N)NC(C)=C(C(=O)OC(C)C)C1c1cccc([N+](=O)[O-])c1` (centres unmarked) [Nilvadipine, reference compound], for which, in the data set on Ca^2+ channel, the “index of EC50 HSP-modulating/Ca^2+ antagonist effect” value is “about 1”.
As for `CC[C@]1(O)C[C@H]2CN(CCc3c([nH]c4ccccc34)[C@@](C(=O)OC)(c3cc4c(cc3OC)N(C=O)[C@H]3[C@@](O)(C(=O)OC)[C@H](OC(C)=O)[C@]5(CC)C=CCN6CC[C@]43[C@@H]65)C2)C1` [VR, vincristine, reference compound], the IC50 in the data set on B16F10 melanoma cells (B16-F10, VR treatment alone) is 1.3 nM.
